The supplement of paper PMC12532568
Counter-ions that a name gives are not always drawn.

Tested on: Danio rerio larvae Tg(actc1b:ZsGreen-LC3), 3 dpf
Assay: LC3 puncta relative area vs vehicle (mean) (log2 fold change); higher = more autophagy
Details: treatment time 16 h
Method: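 Transgenic ZsGreen-LC3 zebrafish larvae (2 dpf) were treated for 16 h with natural bioactives at 10, 50, 100 or 250 µM. Skeletal-muscle LC3 puncta area was measured by high-content imaging with or without 4 h of 100 mM NH4Cl, normalised to vehicle, and reported as the mean log2 fold change over 4–21 larvae.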

Structure (SMILES)	LC3 puncta (log2) (NH4Cl: + NH4Cl, 10 µM)	LC3 puncta (log2) (NH4Cl: + NH4Cl, 50 µM)	LC3 puncta (log2) (NH4Cl: + NH4Cl, 100 µM)	LC3 puncta (log2) (NH4Cl: + NH4Cl, 250 µM)	LC3 puncta (log2) (NH4Cl: - NH4Cl, 10 µM)	LC3 puncta (log2) (NH4Cl: - NH4Cl, 50 µM)	LC3 puncta (log2) (NH4Cl: - NH4Cl, 100 µM)	LC3 puncta (log2) (NH4Cl: - NH4Cl, 250 µM)
O=C(O)C=CC(=O)O [Butenedioic acid]	0.693	1.1	1.29	1.14	0.588	0.758	0.837	0.447
CC(O)CC(=O)O (racemic) [DL-ß-Hydroxybutyric acid sodium salt]	-0.181	0.231	0.389	0.588	0.151	-0.288	0.0785	0.0274
CCCCCC=CCC=CCCCCCCCC(=O)O [Linoaleic acid]	0.722	1.36	1.01		0.542	0.956	0.433	
